In US6972288B1, “4-amino-quinazoline and quinoline derivatives having an inhibitory effect on signal transduction mediated by tyrosine kinases” (Boehringer Ingelheim Pharma KG, priority 1999, dated 2005):

Molecular target: T1, human EGF-R (Homo sapiens, UniProt P00533)
T1 construct: expressed in transfected cells; host or cells: F/L-HERc cells, derived from the murine IL-3-dependent line FDC-P1 ('FDC-PI' [sic]); retroviral vector LXSN, packaging line GP+E86
Experiment: Inhibition of EGF-dependent proliferation of F/L-HERc cells (Cell Titer 96 AQueous assay)
Assay type: cell-based
Conditions: F/L-HERc cells (murine IL-3-dependent line expressing human EGF-R), stimulated with EGF 20 ng/ml, 48 hours at 37° C.
Text: A cell line of murine origin dependent on interleukin-3 (IL-3) which was genetically modified to express functional human EGF-R was used here. The proliferation of these cells known as F/L-HERc can therefore be stimulated either by murine IL-3 or by EGF (cf. von Rüden, T. et al. in EMBO J. 7, 2749-2756 (1988) and Pierce, J. H. et al. in Science 239. 628-631 (1988)).
The starting material used for the F/L-HERc cells was the cell line FDC-PI, the production of which has been described by Dexter, T. M. et al, in J. Exp. Med. 152, 1036-1047 (1980). alternatively, however, other growth-factor-dependent cells may also be used (cf. for example Pierce, J. H. et al. in Science 239, 628-631 (1988), Shibuya, H. et al. in Cell 70, 57-67 (1992) and alexander, W. S. et al. in EMBO J. 10, 3683-3691 (1991)). For expressing the human EGF-R cDNA (cf. Ullrich, A. et al. in Nature 309, 418-425 (1984)) recombinant retroviruses were used as described by von Rüden, T. et al., EMBO J. 7, 2749-2756 (1988), except that the retroviral vector LXSN (cf. Miller, A. D. et al. in BioTechniques 1, 980-990 (1989)) was used for the expression of the EGF-R cDNA and the line GP+E86 (cf, Markowitz, D, et al. in J. Virol. 62, 1120-1124 (1988)) was used as the packaging cell.
The test was performed as follows: • F/L-HERC cells were cultivated in RPMI/1640 medium (BioWhittaker), supplemented with 10% foetal calf serum (FCS, Boehringer Mannheim). 2 mM glutamine (BioWhittaker), standard antibiotics and 20 ng/ml of human EGF (Promega), at 37° C. and 5% CO2. In order to investigate the inhibitory activity of the compounds according to the invention, 1.5×10^4 cells per well were cultivated in triplicate in 96-well plates in the above medium ([…]), the cell proliferation being stimulated with either EGF (20 ng/ml) or murine IL-3. The IL-3 used was obtained from culture supernatants of the cell line X63/0 mIL-3 (cf. Karasuyama, 4. et al. in Eur. J. Immunol. 18, 97-104 (19881). The compounds according to the invention were dissolved in 100% dimethylsulphoxide (DMSO) and added to the cultures in various dilutions, the maximum DMSO concentration being 1%. The cultures were incubated for 48 hours at 37° C.
In order to determine the inhibitory activity of the compounds according to the invention the relative cell number was measured in O.D. units using the Cell Titer 96™ AQueous Non-Radioactive Cell Proliferation Assay (Promega). The relative cell number was calculated as a percentage of the control (F/LHERc cells without inhibitor) and the concentration of active substance which inhibits the proliferation of the cells by 50% (IC50) was derived therefrom.

T1 sequence (P00533 25-1210): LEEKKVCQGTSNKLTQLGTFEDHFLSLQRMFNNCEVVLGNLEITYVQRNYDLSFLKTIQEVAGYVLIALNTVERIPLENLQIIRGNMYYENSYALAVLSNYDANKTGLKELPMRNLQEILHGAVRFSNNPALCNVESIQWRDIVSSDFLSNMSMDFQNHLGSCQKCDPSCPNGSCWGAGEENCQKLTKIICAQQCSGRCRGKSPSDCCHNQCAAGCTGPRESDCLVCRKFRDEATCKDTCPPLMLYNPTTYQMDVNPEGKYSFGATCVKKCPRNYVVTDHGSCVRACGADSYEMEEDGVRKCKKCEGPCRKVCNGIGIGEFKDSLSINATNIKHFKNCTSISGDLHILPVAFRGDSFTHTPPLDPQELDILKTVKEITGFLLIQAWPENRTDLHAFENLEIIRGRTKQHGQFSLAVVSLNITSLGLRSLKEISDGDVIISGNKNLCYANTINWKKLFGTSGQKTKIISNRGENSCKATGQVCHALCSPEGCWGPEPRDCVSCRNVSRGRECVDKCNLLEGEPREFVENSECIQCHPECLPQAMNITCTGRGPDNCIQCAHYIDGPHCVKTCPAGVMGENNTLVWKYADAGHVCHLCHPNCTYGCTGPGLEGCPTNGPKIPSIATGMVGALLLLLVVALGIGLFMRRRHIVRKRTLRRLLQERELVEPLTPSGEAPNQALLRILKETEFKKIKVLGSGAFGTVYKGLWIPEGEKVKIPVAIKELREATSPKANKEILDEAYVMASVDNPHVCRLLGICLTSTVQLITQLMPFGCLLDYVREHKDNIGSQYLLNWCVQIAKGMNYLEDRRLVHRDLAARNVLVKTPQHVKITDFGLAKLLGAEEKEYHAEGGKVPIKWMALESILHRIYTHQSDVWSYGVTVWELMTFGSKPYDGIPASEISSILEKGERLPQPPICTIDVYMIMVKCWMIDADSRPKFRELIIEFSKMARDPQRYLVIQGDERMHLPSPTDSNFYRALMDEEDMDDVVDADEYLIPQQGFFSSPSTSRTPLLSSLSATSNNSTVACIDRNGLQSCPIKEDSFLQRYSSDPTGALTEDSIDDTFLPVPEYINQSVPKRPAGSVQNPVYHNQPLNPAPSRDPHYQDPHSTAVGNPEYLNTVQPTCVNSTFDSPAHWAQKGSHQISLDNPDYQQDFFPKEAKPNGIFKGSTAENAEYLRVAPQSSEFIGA

SMILES | IC50
C=CC(=O)Nc1cc2c(Nc3cccc(Br)c3)ncnc2cc1OCCCN1CCN(CCCC(=O)OCC)CC1 [1(4), 4-[(3-bromophenyl)amino]-7-(3-{4-[3-(ethoxycarbonyl)propyl]-piperazin-1-yl}propyloxy)-6-[(vinylcarbonyl)amino]-quinazoline] | 15 nM
C=CC(=O)Nc1cc2c(Nc3cccc(Br)c3)ncnc2cc1OC1CCN(CC(=O)OCC)CC1 [1(6), 4-[(3-bromophenyl)amino]-7-((1-[(ethoxycarbonyl)methyl]-piperidin-4-yl)oxy)-6-[(vinylcarbonyl)amino]-quinazoline] | 15 nM
C=CC(=O)Nc1cc2c(Nc3cccc(Br)c3)ncnc2cc1OCCCN1CCN(CP(=O)(OCC)OCC)CC1 [1(10), 4-[(3-bromophenyl)amino]-7-(3-{4-[(diethoxyphosphoryl)-methyl]-piperazin-1-yl}propyloxy)-6-[(vinylcarbonyl)amino]-quinazoline] | 21 nM
C=CC(=O)Nc1cc2c(Nc3cccc(Br)c3)ncnc2cc1OCCCN(C)CC(=O)OCC [1(13), 4-[(3-bromophenyl)amino]-7-(3-{N-[(ethoxycarbonyl)methyl]-N-methylamino)propyloxy)-6-[(vinylcarbonyl)amino]-quinazoline] | 8.7 nM
CCOP(=O)(CN(C)CC=CC(=O)Nc1cc2c(Nc3cccc(Br)c3)ncnc2cc1OC)OCC [2(4), 4-[(3-bromophenyl)amino]-6-[(4-{N-[(diethoxyphosphoryl)methyl]-N-methylamino}-1-oxo-2-buten-1-yl)amino]-7-methoxy-quinazoline] | 6.7 nM
CCOC(=O)CN(C)CC=CC(=O)Nc1cc2c(N[C@H](C)c3ccccc3)ncnc2cc1OC [5(2), (R)-4-[(1-phenylethyl)amino]-6-[(4-(N-[(ethoxycarbonyl)methyl]-N-methylamino}-1-oxo-2-buten-1-yl)amino]-7-methoxy-quinazoline] | 9 nM
COc1cc2ncnc(Nc3cccc(Br)c3)c2cc1NC(=O)C=CCN(C)CC(OC)OC [5(8), 4-[(3-bromophenyl)amino]-6-({4-[N-(2,2-dimethoxyethyl)-N-methylamino]-1-oxo-2-buten-1-yl}amino)-7-methoxy-quinazoline] | 1.8 nM
CCOC1CN(CC=CC(=O)Nc2cc3c(Nc4cccc(Br)c4)ncnc3cc2OC)CCO1 (stereo not shown) [5(10), 4-[(3-bromophenyl)amino]-6-([4-(2-ethoxy-morpholin-4-yl)-1-oxo-2-buten-1-yl]amino)-7-methoxy-quinazoline] | 1.8 nM
CCOC(=O)CN(C)CC=CC(=O)Nc1ccc2ncc(C#N)c(Nc3cccc(Br)c3)c2c1 [5(12), 4-[(3-bromophenyl)amino]-3-cyano-6-[(4-{N-[(ethoxycarbonyl)methyl]-N-methylamino}-1-oxo-2-buten-1-yl)amino]-quinoline] | 18 nM
CCOC(=O)CN1CCN(CC=CC(=O)Nc2cc3c(Nc4ccc(F)c(Cl)c4)ncnc3cc2OCC2CC2)CC1 [5(18)] | 7.4 nM
CCOC(=O)CCN(CC=CC(=O)Nc1cc2c(Nc3ccc(F)c(Cl)c3)ncnc2cc1OCC1CC1)CC(=O)OCC [5(22)] | 58 nM
O=C(C=CCN1CCOC(=O)C1)Nc1cc2c(Nc3ccc(F)c(Cl)c3)ncnc2cc1OCC1CC1 [5(25), 4-[(3-chloro-4-fluorophenyl)amino]-6-{[4-(2-oxo-morpholin-4-yl)-1-oxo-2-buten-1-yl]amino}-7-cyclopropylmethoxy-quinazoline] | 74 nM
CCOC(=O)CN1CCN(CC=CC(=O)Nc2cc3c(Nc4ccc(F)c(Cl)c4)ncnc3cc2OC2CCC2)CC1 [5(29), 4-[(3-chloro-4-fluorophenyl)amino]-6-[(4-{4-[(ethoxycarbonyl)methyl]-piperazin-1-yl)-1-oxo-2-buten-1-yl}amino]-7-cyclobutyloxy-quinazoline] | 1.9 nM
COC(=O)[C@@H]1CCCN1CC=CC(=O)Nc1cc2c(Nc3ccc(F)c(Cl)c3)ncnc2cc1OCC1CC1 [5(36)] | 3 nM
CCOC(=O)CN(CC=CC(=O)Nc1cc2c(Nc3ccc(F)c(Cl)c3)ncnc2cc1OCC1CC1)CCSC(C)=O [8(1), 4-[(3-chloro-4-fluorophenyl)amino]-6-[(4-(N-[(ethoxycarbonyl)methyl]-N-[2-(acetylsulphanyl)ethyl]amino)-1-oxo-2-buten-1-yl)amino]-7-cyclopropylmethoxy-quinazoline] | 109 nM

Tested on: not given
Experiment: not given
Conditions: not given

SMILES | melting point
CCOC(=O)CN(C)CCCNC(=O)C=CC(=O)Nc1ccc2ncnc(Nc3cccc(Br)c3)c2c1 [Example 3, 4-[(3-Bromophenyl)amino]-6-{[4-(3-{N-[(ethoxycarbonyl)methyl]-N-methylamino)propylamino)-1,4-dioxo-2-buten-1-yl]amino}-quinazoline] | 199 °C
CCOC(=O)CN(C)CC=CC(=O)Nc1cc2c(Nc3cccc(C)c3)ncnc2cc1OC [Example 5, 4-[(3-methylphenyl)amino]-6-[(4-{N-[(ethoxycarbonyl)methyl]-N-methylamino}-1-oxo-2-buten-1-yl)amino]-7-methoxy-quinazoline] | 110 to 114 °C
C=CC(=O)Nc1cc2c(Nc3cccc(Br)c3)ncnc2cc1OCCCN1CCN(CC(=O)O)CC1 [Example 6, 4-[(3-Bromophenyl)amino]-7-{3-[4-(carboxymethyl)-piperazin-1-yl]propyloxy}-6-[(vinylcarbonyl)amino]-quinazoline] | 140 °C (dec.)
CCOC1CN(CC=CC(=O)Nc2cc3c(Nc4cccc(Br)c4)ncnc3cc2OC)CC(OCC)O1 (stereo not shown) [Example 7, 4-[(3-bromophenyl)amino]-6-{[4-(2,6-diethoxy-morpholin-4-yl)-1-oxo-2-buten-1-yl]amino}-7-methoxy-quinazoline] | 133 to 138 °C
CC1(C)CN(CC=CC(=O)Nc2cc3c(Nc4ccc(F)c(Cl)c4)ncnc3cc2OCC2CC2)CC(=O)O1 [Example 10, 4-[(3-chloro-4-fluorophenyl)amino]-6-{[4-(2,2-dimethyl-6-oxo-morpholin-4-yl)-1-oxo-2-buten-1-yl]amino}-7-cyclopropylmethoxy-quinazoline] | 140 to 142 °C
O=C(C=CCN1CCN(CC(=O)OCc2ccccc2)CC1)Nc1cc2c(Nc3ccc(F)c(Cl)c3)ncnc2cc1OCC1CC1 [Example 12, 4-[(3-Chloro-4-fluoro-phenyl)amino]-6-[(4-{4-[(benzyloxycarbonyl)methyl]-piperazin-1-yl)-1-oxo-2-buten-1-yl}amino]-7-cyclopropylmethoxy-quinazoline] | 174 °C
CCOC(=O)C1CN(S(C)(=O)=O)CCN1CC=CC(=O)Nc1cc2c(Nc3ccc(F)c(Cl)c3)ncnc2cc1OCC1CC1 (stereo not shown) [Example 15, 4-[(3-Chloro-4-fluoro-phenyl)amino]-6-({4-[2-(ethoxycarbonyl)-4-(methylsulfonyl)-piperazin-1-yl]-1-oxo-2-buten-1-yl)amino)-7-cyclopropylmethoxy-quinazoline] | 170 to 173 °C
CCOC(=O)CCN1CCN(CC=CC(=O)Nc2cc3c(Nc4ccc(F)c(Cl)c4)ncnc3cc2OCC2CC2)CC1 [Example 16, 4-[(3-Chloro-4-fluoro-phenyl)amino]-6-[(4-{4-[2-(ethoxycarbonyl)-ethyl]-piperazin-1-yl}-1-oxo-2-buten-1-yl)amino]-7-cyclopropylmethoxy-quinazoline] | 183 to 185 °C
CCOC(=O)CN1CCN(C(C)(C)C=CC(=O)Nc2cc3c(Nc4ccc(F)c(Cl)c4)ncnc3cc2OCC2CC2)CC1 [Example 17, 4-[(3-Chloro-4-fluoro-phenyl)amino]-6-[(4,4-dimethyl-4-{4-[(ethoxycarbonyl)methyl]-piperazin-1-yl)-1-oxo-2-buten-1-yl)amino]-7-cyclopropylmethoxy-quinazoline] | 165 to 167 °C
CCOC(=O)C1CN(C(C)=O)CCN1CC=CC(=O)Nc1cc2c(Nc3ccc(F)c(Cl)c3)ncnc2cc1OCC1CC1 (stereo not shown) [Example 18, 4-[(3-Chloro-4-fluoro-phenyl)amino]-6-({4-[2-(ethoxycarbonyl)-4-(methylcarbonyl)-piperazin-1-yl]-1-oxo-2-buten-1-yl}amino)-7-cyclopropylmethoxy-quinazoline] | 152 to 156 °C
